# Assay results taken from patent US20090047278A1, “Novel Combinational Use of Sulfonamide Compound” (Eisai R & D Management Co., Ltd., priority 2005, published 2009).
# What was measured:
# [1] = tested on: HCT116 cells; experiment: DNA microarray analysis of gene expression changes, correlation and cluster analysis (Example 8); format: cell-based, human; settings: HCT116, 24 hours, at twice the 50% growth inhibitory concentration; different from profiles of the other six compounds
# Description: HCT116 cells were cultured in an RPMI-1640 medium supplemented with 10% fetal bovine serum, 100 units/ml penicillin and 100 μg/ml streptomycin. The following cultivation and compound treatment were carried out in an incubator at 5% CO2 and 37° C. HCT116 cells were seeded in 10 cm-diameter cell culture dishes at 2.0×10^6 cells/dish, cultured for 24 hours and subjected to the following compound treatment.
# In this example, changes in the gene expression of HCT116 cells upon treatments with 12 compounds, i.e., E7820 (0.16 μM), E7070 (0.26 μM), LY186641 (59 μM), LY295501 (24 μM), LY-573636 (9.6 μM), CQS (4.0 μM), MST16 (100 μM), etoposide (3.6 μM), ethoxzolamide (410 μM), capsaicin (280 μM), trichostatin A (0.16 μM) and kenpaullone (7.1 μM) were examined.
# The concentration of each compound used for the treatment was set to twice the 50% growth inhibitory concentration of each compound to the HCT116 cells (based on three days of antiproliferative activity using MTT). The cells were collected 24 hours after the treatment at the concentration indicated in parentheses following each compound name above. Similarly, cells cultured for 24 hours without the addition of any compound were also collected.
# Total RNA extraction from the collected cells was performed using TRIZOL reagent (Invitrogen) according to the attached instruction.
# Gene expression analysis using a DNA microarray was carried out in the same manner as “(2) Analysis of gene expression using DNA microarray” in Example 7.
# This example was conducted for each sample in duplicate (for the convenience of the experiment, samples were given branch numbers like control-1, control-2, E7070-1, E7070-2 and so on for distinction). Then, GeneChip (Affymetrix) system (Human Focus array) was used for analyzing changes in the gene expression induced by each compound.
# Twenty-six “.cel” files obtained in this example (13 samples (a control+12 compounds)×2) were subjected to RMA method (robust multi-array average method (Biostatistics (2003), 4, 249-264)) for normal distribution at probe level, and then the logarithm value of the signal intensity at gene level was calculated. Next, the logarithm value of the signal intensity of the untreated group (control-1) was subtracted from the logarithm value of the signal intensity of the compound-treated group for each gene to obtain the logarithm value of the signal ratio of the compound-treated group to control-1. Then, cosine correlation coefficients were calculated as correlation coefficients between the experiments (FIG. 9). Based on these correlation coefficients, hierarchical cluster analysis was performed according to UPGMA method (Unweighted Pair Group Method with Arithmetic mean method) (FIG. 10). Control-2 was also subjected to similar calculation (FIGS. 11 and 12). The softwares used were R 2.0.1 (http://www.r-project.org/) and affy package 1.5.8 (http://www.bioconductor.org).
# [2] = tested on: HCT116-C9; experiment: Cross-resistance in E7070-resistant cell line, antiproliferative activity by MTT method; format: cell-based, human; settings: Example 11, 72 hours
# Description: An E7070-resistant cell line was used to assess the antiproliferative activities of E7820, LY186641, LY295501, LY-ASAP and CQS. HCT116-C9 was a substrain separated from human colon cancer-derived HCT116 (American Type Culture Collection, Manassas, Va., U.S.A.). This HCT116-C9 was cultured in the presence of E7070 while increasing the E7070 concentration by degrees, thereby obtaining E7070-resistant substrains HCT116-C9-C1 and HCT116-C9-C4 (Molecular Cancer Therapeutics, 2002, 1, 275-286).
# Three cell lines, i.e., HCT116-C9, HCT116-C9-C1 and HCT116-C9-C4, were each seeded at 3000 cells/well onto a 96-well microplate (flat bottom) (50 μl/well). Twenty-four hours later, they were added with a 3-fold dilution series of each compound (50 μl/well). Seventy-two hours later, the antiproliferative activities were assessed by MTT method (Mossmann T., J. Immunol. Methods, 1983, 65, 55-63). The 50% growth inhibitory concentrations to the cancer cells were obtained by a least square method.
# In exactly the same manner as in Example 10, an E7070-resistant cell line was used to assess the antiproliferative activities of LY573636 as well as those of E7070.
# [3] = tested on: human non-small-cell lung cancer cell line (PC9); experiment: E7820 and gefitinib in subcutaneous transplant model of PC9; format: in vivo; settings: PC9 s.c. in nude mouse; oral; E7820 50 mg/kg twice a day, gefitinib 75 mg/kg once a day, 2 weeks; Day 1 = first administration
# Description: (§1) Using a phosphate buffer, 5×10^7 cells/mL suspension was prepared, and 0.1 mL each of the resulting cell suspension was subcutaneously transplanted to a nude mouse at the side of its body. Eight days after the transplantation, E7820 and gefitinib were orally administered alone or in combination for 50 mg/kg twice a day for 2 weeks and for 75 mg/kg once a day for 2 weeks, respectively. The major and minor axes of tumors were measured with Digimatic caliper (Mitsutoyo), and tumor volumes and relative tumor volumes were calculated according to the following formulae.
# (§2) Tumor Volume TV=Major axis of tumor(mm)×(Minor axis of tumor)^2(mm^2)/2
# (§3) Relative Tumor Volume RTV=Tumor volume on measurement day/Tumor volume on the first administration day
# [4] = tested on: human non-small-cell lung cancer cell line (A549); experiment: E7820 and gefitinib in subcutaneous transplant model of A549; format: in vivo; settings: A549 s.c. in nude mouse; oral; E7820 50 mg/kg twice a day, gefitinib 75 mg/kg once a day, 3 weeks; Day 1 = first administration
# Description: as §1, with “Human non-small-cell lung cancer cell line A549 (purchased from Dainippon Pharmaceutical) was cultured in RPMI1640 (containing 10% FBS) in a 5% carbon dioxide incubator at 37° C. to about 80% confluence, and the cells were collected with trypsin-EDTA. Using” for “Using”, “phosphate buffer containing 50% matrigel,” for “phosphate buffer,”, “body. Ten” for “body. Eight”, “for 3” for “for 2”
# Tumor Volume TV=Major axis of tumor(mm)×(minor axis of tumor)^2(mm^2)/2
# as §3
# [5] = tested on: human non-small-cell lung cancer cell line (A549); experiment: E7820 and erlotinib in subcutaneous transplant model of A549; format: in vivo; settings: A549 s.c. in nude mouse; oral; E7820 50 mg/kg twice a day, erlotinib 100 mg/kg once a day, 2 weeks; Day 1 = first administration
# Description: as §1, with “Human non-small-cell lung cancer cell line A549 (purchased from Dainippon Pharmaceutical) was cultured in RPMI1640 (containing 10% FBS) in a 5% carbon dioxide incubator at 37° C. to about 80% confluence, and the cells were collected with trypsin-EDTA. Using” for “Using”, “buffer containing 50% matrigel,” for “buffer,”, “Seventeen” for “Eight”, “erlotinib” for “gefitinib”, “100” for “75”
# as §2, §3
# [6] = tested on: human colon cancer cell line (WiDr); experiment: E7820 and cetuximab in subcutaneous transplant model of WiDr; format: in vivo; settings: WiDr s.c. in nude mouse; E7820 oral 50 mg/kg twice a day, cetuximab i.p. 100 mg/kg twice a week, 2 weeks; Day 1 = first administration
# Description: Human colon cancer cell line WiDr (obtained from Dainippon Pharmaceutical) was cultured in RPMI1640 (containing 10% FBS) in a 5% carbon dioxide incubator at 37° C. to about 80% confluence, and the cells were collected with trypsin-EDTA. Using a phosphate buffer, 5×10^7 cells/mL suspension was prepared, and 0.1 mL each of the resulting cell suspension was subcutaneously transplanted to a nude mouse at the side of its body.
# [7] = tested on: human renal cancer cell line (ACHN); experiment: E7820 and cetuximab in subcutaneous transplant model of ACHN; format: in vivo; settings: ACHN s.c. in nude mouse; E7820 oral 50 mg/kg twice a day, cetuximab i.p. 100 mg/kg twice a week, 2 weeks; Day 1 = first administration
# Description: Human renal cancer cell line ACHN (obtained from Dainippon Pharmaceutical) was cultured in RPMI1640 (containing 10% FBS) in a 5% carbon dioxide incubator at 37° C. to about 80% confluence, and the cells were collected with trypsin-EDTA. Using a phosphate buffer, 1×10^8 cells/mL suspension was prepared, and 0.1 mL each of the resulting cell suspension was subcutaneously transplanted to a nude mouse at the side of its body.
# Tumor Volume TV=Major axis of tumor(mm)×(Minor axis of tumor)^2 (mm^2)/2
compound,measurement,setting,value
"Nc1ccc(S(=O)(=O)Nc2cnc3c(Cl)cccc3n2)cc1 [CQS, 2-sulfanylamide-5-chloroquinoxaline]","similarity of changes in gene expression (cosine correlation, cluster analysis) among E7070, E7820, LY186641, LY295501, LY573636 and CQS",[1],very similar genetic alterations
"NS(=O)(=O)c1ccc(S(=O)(=O)Nc2cccc3c(Cl)c[nH]c23)cc1 [E7070, N-(3-chloro-1H-indole-7-yl)-4-sulfamoylbenzenesulfonamide]","similarity of changes in gene expression (cosine correlation, cluster analysis) among E7070, E7820, LY186641, LY295501, LY573636 and CQS",[1],very similar genetic alterations
same,IC50,[2],127 nM
"Cc1ccc(NS(=O)(=O)c2cccc(C#N)c2)c2[nH]cc(C#N)c12 [E7820, N-(3-cyano-4-methyl-1H-indole-7-yl)-3-cyanobenzenesulfonamide]",Relative tumor volume on Day 15 Average ± standard deviation,[3],2.57 ± 0.41
same,Relative tumor volume on Day 22 Average ± standard deviation,[4],3.69 ± 0.68
same,Relative tumor volume on Day 15 Average ± standard deviation,[5],2.62 ± 0.07
same,"similarity of changes in gene expression (cosine correlation, cluster analysis) among E7070, E7820, LY186641, LY295501, LY573636 and CQS",[1],very similar genetic alterations
same,Relative tumor volume on Day 15 Average ± standard deviation,[6],3.3 ± 0.6
same,Relative tumor volume on Day 15 Average ± standard deviation,[7],1.3 ± 0.2
"C#Cc1cccc(Nc2ncnc3cc(OCCOC)c(OCCOC)cc23)c1 [Erlotinib, 4-(3-ethynylphenylamino)-6,7-bis(2-methoxyethoxy)-quinazoline, reference compound]",Relative tumor volume on Day 15 Average ± standard deviation,[5],1.94 ± 0.19
"COc1cc2ncnc(Nc3ccc(F)c(Cl)c3)c2cc1OCCCN1CCOCC1 [Gefitinib, 4-(3-chloro-4-fluorophenylamino)-7-methoxy-6-(3-(4-morpholino)propoxy-quinazoline), reference compound]",Relative tumor volume on Day 15 Average ± standard deviation,[3],0.36 ± 0.12
same,Relative tumor volume on Day 22 Average ± standard deviation,[4],2.26 ± 0.59
"O=C(Nc1ccc(Cl)cc1)NS(=O)(=O)c1ccc2c(c1)CCC2 [LY186641, N-[[(4-chlorophenyl)amino]carbonyl]-2,3-dihydro-1H-indene-5-sulfonamide]","similarity of changes in gene expression (cosine correlation, cluster analysis) among E7070, E7820, LY186641, LY295501, LY573636 and CQS",[1],very similar genetic alterations
"O=C(Nc1ccc(Cl)c(Cl)c1)NS(=O)(=O)c1ccc2c(c1)CCO2 [LY295501, N-[[(3,4-dichlorophenyl)amino]carbonyl]-2,3-dihydrobenzofuran-5-sulfonamide]","similarity of changes in gene expression (cosine correlation, cluster analysis) among E7070, E7820, LY186641, LY295501, LY573636 and CQS",[1],very similar genetic alterations
"O=C(NS(=O)(=O)c1ccc(Br)s1)c1ccc(Cl)cc1Cl [LY573636, N-(2,4-dichlorobenzoyl)-5-bromothiophene-2-sulfonamide]","similarity of changes in gene expression (cosine correlation, cluster analysis) among E7070, E7820, LY186641, LY295501, LY573636 and CQS",[1],very similar genetic alterations
